Where two headings read alike, the source gives them in different places. Marks after values point to notes of the source that are not given here. Positions of bridges follow the written chain, without caps; N, C: chain ends. Non-standard residues stand in square brackets, D forms with d. Residues, ends and D or L forms follow the SMILES beside them. *: point of attachment. NODAGA = O=C(O)CN1CCN(CC(=O)O)CCN(C(CCC(=O)*)C(=O)O)CC1; dPhe(4-NHCONH2) = NC(=O)Nc1ccc(C[C@@H](N)C(=O)O)cc1; Dihydroorotyl(S) = O=C1C[C@@H](C(=O)*)NC(=O)N1; Phe(4-Cl) = N[C@@H](Cc1ccc(Cl)cc1)C(=O)O; Phe(4-NH2) = Nc1ccc(C[C@H](N)C(=O)O)cc1
Experiments:
MPC cells [1] = system: MPC cells; parameters: method as in Brandt et al.[16], Brandt et al.[17]; conditions: intact MPC cells, 20 nM radioligand, 1 h, 37 °C, acid wash glycine pH 2.8; previously published; ref Brandt et al.[16], Brandt et al.[17]; cited from earlier work
[2] = Radioligand stability toward MPC cell homogenate under assay conditions; assay type: in vitro ADME, mouse; conditions: 40 nM radioligand, 37 °C, radio-HPLC of supernatant
Source text: (§1) Considering the aforementioned exposure of the radioligands to intracellular components in cell homogenates, a degradation by intracellular proteases could lead to reduced radioligand concentrations and thus apparently higher Kd values. While most of the serine and cysteine proteases might be inhibited by the used inhibitor cocktail during homogenization (see Materials and Methods), a residual proteolytic activity cannot be excluded. Therefore, for the two radioligands, [^64Cu]Cu-NODAGA-NES2-TATE and [^64Cu]Cu-NODAGA-NES5-TATE, the stability toward cell homogenates and intact cells under assay conditions were exemplarily examined (Figure S3 in the Supporting Information).
(§2) Figure S3: Stability toward cell homogenate and intact cells
(§3) [64Cu]Cu-NODAGA-NES2-TATE and [64Cu]Cu-NODAGA-NES5-TATE (40 nM) were incubated at 37°C under assay conditions in the presence of MPC cell homogenate or MPC intact cells. After 1 h, an aliquot (160 µL) was withdrawn, mixed with “Supersol” (320 µL), which consists of 20% ethanol, 0.5% Triton X-100, 5 mM EDTA, 0.5 mM o-phenanthroline, and 0.1% saponin. This was followed by centrifugation at 13,500 rpm for 3 min (Thermo Scientific Heraeus Fresco 21). The supernatant was analyzed by radio-HPLC.1, 2 […]
(§4) (1 picture or pasted object on this page, not shown here)

[3] = Radioligand stability toward intact MPC cells under assay conditions; assay type: in vitro ADME, mouse; conditions: 40 nM radioligand, 37 °C, radio-HPLC of supernatant
Source text: as §1, §2, §3, §4

SST2 [4] = target: T1, SST2 (Mus musculus, UniProt P30875); assay: Saturation binding of 64Cu-labeled radioligands to intact MPC cells (adherent); conditions: 1 h, 37 °C, mean (68% confidence interval) of one experiment in duplicate or triplicate
T1 construct: endogenous in cells; host or cells: MPC (mouse pheochromocytoma) cells, passages 35-40
T1 sequence (P30875 whole entry): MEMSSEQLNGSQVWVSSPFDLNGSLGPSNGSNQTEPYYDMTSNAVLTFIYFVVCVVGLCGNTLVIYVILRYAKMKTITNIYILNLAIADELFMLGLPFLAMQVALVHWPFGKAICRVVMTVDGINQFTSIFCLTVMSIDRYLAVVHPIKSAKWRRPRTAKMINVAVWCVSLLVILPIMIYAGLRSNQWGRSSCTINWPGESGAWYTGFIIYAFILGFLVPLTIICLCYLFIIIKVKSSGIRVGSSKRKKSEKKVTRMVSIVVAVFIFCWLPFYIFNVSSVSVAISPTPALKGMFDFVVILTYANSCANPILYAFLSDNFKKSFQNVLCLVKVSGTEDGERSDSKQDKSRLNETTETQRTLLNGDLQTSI
Protocol: A number of 3 × 10^5 cells/cm^2 were seeded in collagen-coated 48-well microplates (CELLSTAR 48 Well Cell Culture Multiwell Plates, Polystyrene, Greiner bio-one, Item no. 677180) and grown for three days. For binding assays, cell culture medium was removed and replaced by fresh medium supplemented with the radioligand (Am = 25 MBq/nmol) at increasing final concentrations between 0.321 and 40 nM (final sample volume 0.2 mL). […] Samples were incubated for 60 min at 37 °C. Incubation was stopped by washing with ice-cold Dulbecco’s PBS. Cells were lysed with 0.1 M NaOH containing 1% (w/v) SDS. Activity was measured in cell homogenates and in a series of radioligand standards containing increasing molar amounts between 0.06 and 8 pmol using the gamma counter Wizard (PerkinElmer). […] Measurements for total binding were performed in triplicate, while measurements for nonspecific binding were performed in duplicates.
Plots of “total binding” = f(radioligand) were analyzed by nonlinear regressions using the model of “one site—total, accounting for ligand depletion” as implemented in GraphPad Prism and Plots of “nonspecific binding” = f(radioligand) were analyzed by linear regressions. For the ligand depletion model, the term “NS” was constrained to the respective slopes obtained by the linear regressions. […]

SST2 [5] = target: T1, SST2; assay: Saturation binding of 64Cu-labeled radioligands to MPC cell homogenates; conditions: read-out: Kd, MPC cell homogenate
Protocol: MPC cells (passages 35–40) were routinely cultured in collagen-coated flasks as described elsewhere[49] and harvested at 70–80% confluency in Dulbecco’s phosphate-buffered saline containing 2.0 mM ethylenediaminetetraacetic acid (EDTA) at 4 °C for 30 min. Cells were resuspended and frozen in fetal bovine serum containing 10% (v/v) DMSO and stored at −70 °C. After thawing, cells were washed and resuspended in ice-cold saturation assays buffer, pH 7.4, containing 50 mM Tris-HCl, 1 mM EDTA, 0.5 mM o-phenanthroline, and 0.1% (w/v) bovine serum albumin. Cells were homogenized in ice-cold saturation assay buffer supplemented with complete EDTA-free proteinase inhibitor (Roche, Basel Switzerland) using a Dounce homogenizer. Protein content of cell homogenates was measured at A280nm (setting 1 Abs = 1 mg/mL) using a nanodrop spectrophotometer (Thermo-Fisher Scientific).
For the measurement of total binding, 0.155 mL of cell homogenates were incubated with radioligands (molar activity (Am) = 25 MBq/nmol) at increasing final concentrations between 0.625 and 40 nM (final sample volume 0.2 mL) in Polystyrene tubes (5 mL, round bottom, clear, Greiner bio-one, Item no. 115101). […] Activity bound to filters was measured using the gamma counter Wizard (PerkinElmer). Activity in a series of radioligand standards was measured at increasing molar amounts between 0.625 and 40 nM. […]

MPC cells [6] = assay: Cell binding and uptake (acid wash) in MPC cells; assay type: cell-based, mouse; conditions: intact MPC cells, 20 nM radioligand, 1 h, 37 °C, acid wash 0.05 M glycine pH 2.8 for 5 min; nonspecific with 20 μM Acetyl-TATE; from mean values of one experiment in sextuplicate
Protocol: MPC cells were seeded into collagen-coated 24-well microplates and cultivated for 4 days. All washing steps were performed using PBS containing 0.9 mM CaCl2 and 0.5 mM MgCl2. Total radioligand uptake was measured after incubation with the radioligand (Am = 30 GBq/μmol) at a final concentration of 20 nM in RPMI 1640 medium with GlutaMAX supplement (Thermo Fisher Scientific) for 1 h at 37 and 4 °C. Nonspecific binding was determined in the presence of 20 μM Acetyl-TATE. The uptake fraction was measured after acid wash of cell surface-bound radioligand with wash buffer containing 0.05 M glycine, pH 2.8, for 5 min. The activity of cell homogenates was measured using the γ counter Wizard (PerkinElmer). The protein content of cell homogenates was measured as described above.
Nonspecific binding was determined in the presence of 20 µM Acetyl -TATE (radioligand concentration of 20 nM). Data shown in A and B are mean values (±SD) of one experiment, which was performed in sextuplicate. In C, the uptake fraction (“internalized” or not acid releasable radioligand, red bars in A, mean values) is expressed as percentage of specific total-bound radioligand (blue bars in A, mean values). The difference to 100% was assigned to “surface-bound” radioligand. For a better overview, the compound names were abbreviated. […]
specific binding of radioligand
Incubation at 37°C for 1 h […]

Compound: C[C@@H](O)[C@H](NC(=O)[C@@H]1CSSC[C@H](NC(=O)[C@@H](Cc2ccccc2)NC(=O)COCCOCCNC(=O)[C@H](CCCCN=[N+]=[N-])NC(=O)[C@H](Cc2ccccc2)NC(=O)CNC(=O)[C@@H](CCCNC(=N)N)NC(=O)c2ccc(CNC(=O)CCC(C(=O)O)N3CCN(CC(=O)O)CCN(CC(=O)O)CC3)cc2)C(=O)N[C@@H](Cc2ccc(O)cc2)C(=O)N[C@H](Cc2c[nH]c3ccccc23)C(=O)N[C@@H](CCCCN)C(=O)N[C@@H]([C@@H](C)O)C(=O)N1)C(=O)O (stereo partly shown) [NES4-TATE]
- uptake fraction (internalized or not acid releasable radioligand) as percentage of specific total-bound radioligand (MPC cells [1]): 53 ^d %

Compound: CCCC[C@H](NC(=O)c1ccc(CNC(=O)CCC(C(=O)O)N2CCN(CC(=O)O)CCN(CC(=O)O)CC2)cc1)C(=O)N[C@H](C(=O)N[C@@H](CCCCN=[N+]=[N-])C(=O)NCCOCCOCC(=O)N[C@H](Cc1ccccc1)C(=O)N[C@H]1CSSC[C@@H](C(=O)N[C@H](C(=O)O)[C@@H](C)O)NC(=O)[C@H]([C@@H](C)O)NC(=O)[C@H](CCCCN)NC(=O)[C@@H](Cc2c[nH]c3ccccc23)NC(=O)[C@H](Cc2ccc(O)cc2)NC1=O)C(C)C (stereo partly shown) [NES2-TATE]
- stability (radioligand remaining stable) after 1 h of incubation with MPC cell homogenate [2]: ≥ 87%
- uptake fraction (internalized or not acid releasable radioligand) as percentage of specific total-bound radioligand (MPC cells [1]): 56 ^d %
- stability (radioligand remaining stable) after 1 h of incubation with intact MPC cells [3]: ≥ 87%

Compound: CCCC[C@H](NC(=O)CCC(C(=O)O)N1CCN(CC(=O)O)CCN(CC(=O)O)CC1)C(=O)N[C@H](C(=O)N[C@@H](CCCCN=[N+]=[N-])C(=O)NCCOCCOCC(=O)N[C@H](Cc1ccccc1)C(=O)N[C@H]1CSSC[C@@H](C(=O)N[C@H](C(=O)O)[C@@H](C)O)NC(=O)[C@H]([C@@H](C)O)NC(=O)[C@H](CCCCN)NC(=O)[C@@H](Cc2c[nH]c3ccccc23)NC(=O)[C@H](Cc2ccc(O)cc2)NC1=O)C(C)C (stereo partly shown) [NES1-TATE]
- uptake fraction (internalized or not acid releasable radioligand) as percentage of specific total-bound radioligand (MPC cells [1]): 49 ^d %

Compound: C[C@@H](O)[C@@H]1NC(=O)[C@H](CCCCN)NC(=O)[C@@H](Cc2ccc(NC(N)=O)cc2)NC(=O)[C@H](Cc2ccc(NC(=O)[C@@H]3CC(=O)NC(=O)N3)cc2)NC(=O)[C@H](NC(=O)[C@H](Cc2ccc(Cl)cc2)NC(=O)CCC(C(=O)O)N2CCN(CC(=O)O)CCN(CC(=O)O)CC2)CSSC[C@@H](C(=O)N[C@H](Cc2ccc(O)cc2)C(N)=O)NC1=O (stereo partly drawn) [JR11] ({NODAGA}-[Phe(4-Cl)][dC][Phe(4-NH2)](Dihydroorotyl(S))[dPhe(4-NHCONH2)]KTC[dY]-NH2; disulfide 2-7)
- Kd (SST2 [4]): 8.17 nM
- Kd (SST2 [5]): 5.35 nM

Compound: C[C@@H](O)[C@H](NC(=O)[C@@H]1CSSC[C@H](NC(=O)[C@@H](Cc2ccccc2)NC(=O)COCCOCCNC(=O)[C@H](Cc2cn(CCCCC(=O)N[C@H](CCCCNC(=O)CCCc3ccc(I)cc3)C(=O)O)nn2)NC(=O)CCC(C(=O)O)N2CCN(CC(=O)O)CCN(CC(=O)O)CC2)C(=O)N[C@@H](Cc2ccc(O)cc2)C(=O)N[C@H](Cc2c[nH]c3ccccc23)C(=O)N[C@@H](CCCCN)C(=O)N[C@@H]([C@@H](C)O)C(=O)N1)C(=O)O (stereo partly shown) [cLAB1-TATE]
- uptake fraction (internalized or not acid releasable radioligand) as percentage of specific total-bound radioligand (MPC cells [6]): 66%

Compound: C[C@@H](O)[C@H](NC(=O)[C@@H]1CSSC[C@H](NC(=O)[C@@H](Cc2ccccc2)NC(=O)COCCOCCNC(=O)[C@H](CCCCN=[N+]=[N-])NC(=O)[C@H](Cc2ccccc2)NC(=O)CNC(=O)c2ccc(CNC(=O)CCC(C(=O)O)N3CCN(CC(=O)O)CCN(CC(=O)O)CC3)cc2)C(=O)N[C@@H](Cc2ccc(O)cc2)C(=O)N[C@H](Cc2c[nH]c3ccccc23)C(=O)N[C@@H](CCCCN)C(=O)N[C@@H]([C@@H](C)O)C(=O)N1)C(=O)O (stereo partly shown) [NES3-TATE]
- uptake fraction (internalized or not acid releasable radioligand) as percentage of specific total-bound radioligand (MPC cells [1]): 68 ^d %

Compound: C[C@@H](O)[C@H](NC(=O)[C@@H]1CSSC[C@H](NC(=O)[C@@H](Cc2ccccc2)NC(=O)COCCOCCNC(=O)[C@H](CCCCn2cc(CCC(=O)N[C@@H](CCCCNC(=O)CCCc3ccc(I)cc3)C(=O)O)nn2)NC(=O)[C@H](Cc2ccccc2)NC(=O)CNC(=O)[C@@H](CCCNC(=N)N)NC(=O)c2ccc(CNC(=O)CCC(C(=O)O)N3CCN(CC(=O)O)CCN(CC(=O)O)CC3)cc2)C(=O)N[C@@H](Cc2ccc(O)cc2)C(=O)N[C@H](Cc2c[nH]c3ccccc23)C(=O)N[C@@H](CCCCN)C(=O)N[C@@H]([C@@H](C)O)C(=O)N1)C(=O)O (stereo partly shown) [NES5-TATE]
- stability (radioligand remaining stable) after 1 h of incubation with MPC cell homogenate [2]: ≥ 87%
- uptake fraction (internalized or not acid releasable radioligand) as percentage of specific total-bound radioligand (MPC cells [1]): 62 ^d %
- stability (radioligand remaining stable) after 1 h of incubation with intact MPC cells [3]: ≥ 87%

Compound: C#CC[C@H](NC(=O)CCC(C(=O)O)N1CCN(CC(=O)O)CCN(CC(=O)O)CC1)C(=O)NCCOCCOCC(=O)N[C@H](Cc1ccccc1)C(=O)N[C@H]1CSSC[C@@H](C(=O)N[C@H](C(=O)O)[C@@H](C)O)NC(=O)[C@H]([C@@H](C)O)NC(=O)[C@H](CCCCN)NC(=O)[C@@H](Cc2c[nH]c3ccccc23)NC(=O)[C@H](Cc2ccc(O)cc2)NC1=O (stereo partly shown) [Pra-PEG2-TATE]
- uptake fraction (internalized or not acid releasable radioligand) as percentage of specific total-bound radioligand (MPC cells [6]): 48%

— article PMC10324063, “Comparative Saturation Binding Analysis of ^64Cu-Labeled Somatostatin Analogues Using Cell Homogenates and Intact Cells” (ACS Omega, 2023)
